In patent US20180353501A1 (Arvinas, Inc., priority 2017, published 2018):
Like-named read-outs stand apart in the source and are kept apart here.

How the values were obtained:
p38α = target: T1, p38α (Homo sapiens, UniProt Q16539); experiment: Western blot survey of p38 isoform degradation in MDA-MB-231 cells (incl. proteasome rescue, CHX chase, washout); type: cell-based; settings: for Dmax: read-out: p38α Dmax (maximum percentage of degradation achieved)
T1 construct: selectively degrades p38α, whereas exemplary PROTAC 46 (10-atom linker, phenyl attachment) selectively degrades p38δ in MDA-MB-231 cells; endogenous in cells; host or cells: MDA-MB-231
Procedure: (§1) FIGS. 11A and 11B. Survey of p38 isoform degradation with foretinib-based VHL PROTACs (related to FIGS. 9A-9C and Table 13). (A) Western blots of amide series PROTACs tested in increasing concentrations (0.025, 0.100, 0.250, 1.0, 5.0 μM) on MDA-MB-231 cells, in duplicate. (B) Same as in (A) but with the phenyl series PROTACs. Summary table of the DC50 (concentration at which half-maximal degradation is achieved) and Dmax (maximum percentage of degradation achieved) is reported, per exemplary PROTAC, in Table 13.
(§2) FIGS. 13A, 13B, 13C, and 13D. Exemplary compounds 50 and 46 degrade p38 isoforms in a manner that is rapid, sustained, and proteasome-dependent. (A) MDA-MB-231 cells were either pre-treated or not with the proteasome inhibitor epoxomicin (1 μM) or the neddylation inhibitor MLN4924 (1 μM) for 30 minutes and subsequently treated with either vehicle (DMSO), exemplary compound 50 (250 nM), or exemplary compound 46 (250 nM) for 6 hours. (B) Quantitative real-time PCR was performed after 24 hours of treatment with either vehicle (DMSO), exemplary compound 50 (250 nM), or exemplary compound 46 (250 nM) in MDAMB-231 cells. The dotted line represents DMSO-treated conditions standardized to a value of 1.0 and mRNA abundance (per treatment group) is represented as a foldchange relative to that value. Data is based on biological duplicates and is normalized to beta-tubulin. (C) Cycloheximide (CHX) chase assay. MDA-MB-231 cells were pre-treated with 100 μg/mL CHX for 1 hour prior to treating for the indicated times with either vehicle (DMSO), exemplary compound 50 (250 nM), or exemplary compound 46 (250 nM). Tubulin-normalized p38α and p38δ abundance values are reported beneath individual lanes. (D) MDA-MB231 cells were treated with either vehicle (DMSO), exemplary compound 50 (250 nM), or exemplary compound 46 (250 nM) for 24 hours before re-plating onto new plastic in fresh medium for an additional 24, 48, or 72 hours (“washout” conditions).
(§3) Cell culture. MDA-MB-231 and HeLa cells were obtained from the American Type Culture Collection (ATCC), cultured in RPMI-1640 (1×) and DMEM (1×) medium, respectively, containing 10% fetal bovine serum (FBS) and 1% penicillin-streptomycin and grown in a humidified incubator at 37° C. and 5% CO2.
(§4) Lysates from MDA-MB-231 cells were washed once with ice cold PBS (1×), followed by lysis in buffer containing 25 mM Tris [pH 7.5], 0.25% sodium deoxycholate, 1% Triton X-100, supplemented with 1× protease inhibitor cocktail (Roche) and phosphatase inhibitors (10 mM NaF, 1 mM Na3VO4, and 20 mM β-glycerophosphate), unless otherwise noted. Lysates were spun at 14,000×g for 10 minutes at 4° C. and supernatant was evaluated for protein content using a Pierce BCA Protein Assay (Thermo Fisher Scientific). 25 to 50 μg of protein was loaded onto 10% SDS-PAGE gels or 4-20% Criterion TGX precast gradient gels (Bio-Rad), transferred to nitrocellulose membranes, and probed with the specified antibodies overnight at 4° C. in 1×TBS-Tween (Tris buffered saline plus 0.02% Tween 20) containing 5% non-fat milk. Immunoblots were visualized using a Bio-Rad ChemiDoc imaging instrument and subsequently processed and quantified using the accompanying Bio-Rad ImageLab software.
(§5) MDA-MB-231 cells were plated at 3×10^5 cells per well in a 6-well dish, allowed to adhere overnight, and switched to serum-free RPMI-1640 (1×) media for 16 hours. Cells were then pre-treated with cycloheximide (Sigma) at 100 μg mL^−1 for 1 hour prior to adding either vehicle (DMSO) or PROTAC (250 nM). At the indicated timepoints, cells were immediately placed on ice, rinsed with 1×PBS, lysed, and boiled.
(§6) MDA-MB-231 cells were plated at 1.5×10^5 cells per well in a 6-well dish and allowed to adhere overnight. On the following day, all cells were treated with either vehicle (DMSO) or PROTAC (250 nM). […]

p38δ = target: T2, p38δ (Homo sapiens, UniProt O15264); experiment: as above; type: cell-based
T2 construct: endogenous in cells; host or cells: MDA-MB-231 (intact cells for degradation; cleared cell lysate for CETSA)
T2 sequence (O15264 1-365): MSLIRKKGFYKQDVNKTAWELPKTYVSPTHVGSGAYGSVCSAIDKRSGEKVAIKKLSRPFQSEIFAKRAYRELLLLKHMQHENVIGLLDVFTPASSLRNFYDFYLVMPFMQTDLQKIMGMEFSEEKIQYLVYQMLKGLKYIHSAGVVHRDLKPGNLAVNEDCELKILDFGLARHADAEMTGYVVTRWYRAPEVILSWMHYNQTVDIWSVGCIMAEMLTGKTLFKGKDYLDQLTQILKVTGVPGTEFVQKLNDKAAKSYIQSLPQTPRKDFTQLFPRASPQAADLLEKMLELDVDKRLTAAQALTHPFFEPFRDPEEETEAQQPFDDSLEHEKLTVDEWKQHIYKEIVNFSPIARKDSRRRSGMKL
Procedure: as §1, §2, §3, §4, §5, §6

[1] = MDA-MB-231 cells, western blot, read-out: p38α DC50 (concentration at which half-maximal degradation is achieved)
[2] = 250 nM 24 hours, then re-plated without compound
[3] = 250 nM PROTAC 6 hours, pre-treated 1 μM epoxomicin or 1 μM MLN4924

T1 sequence (Q16539 whole entry, canonical isoform): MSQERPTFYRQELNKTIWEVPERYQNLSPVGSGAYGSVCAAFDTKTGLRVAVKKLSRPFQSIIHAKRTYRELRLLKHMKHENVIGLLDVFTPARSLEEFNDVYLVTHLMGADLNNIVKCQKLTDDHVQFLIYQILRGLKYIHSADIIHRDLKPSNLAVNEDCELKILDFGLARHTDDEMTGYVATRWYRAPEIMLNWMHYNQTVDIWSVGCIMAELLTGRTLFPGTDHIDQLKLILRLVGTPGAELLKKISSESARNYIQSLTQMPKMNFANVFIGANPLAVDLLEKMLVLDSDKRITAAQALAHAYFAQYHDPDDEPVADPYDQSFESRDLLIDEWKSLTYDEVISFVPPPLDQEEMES

| Dmax (p38α; MDA-MB-231 cells, western blot) [%] | DC50 (p38δ; MDA-MB-231 cells, western blot) [nM] | Dmax (p38δ; MDA-MB-231 cells, western blot) [%] | DC50 (p38α; MDA-MB-231 cells, western blot, read-out: p38α DC50) [nM] | p38δ degradation efficacy maintained post-washout (p38δ; [2]) [h] | rescue of p38δ downregulation by proteasome / neddylation inhibitor (p38δ; [3]) | p38δ Dmax (p38δ; MDA-MB-231 cells, western blot) | Compound | DC50 (p38α; [1]) [nM] | p38α degradation efficacy maintained post-washout (p38α; [2]) [h] | rescue of p38α downregulation by proteasome / neddylation inhibitor (p38α; [3]) | p38α Dmax (maximum percentage of degradation achieved) (p38α; MDA-MB-231 cells, western blot) |
| --- | --- | --- | --- | --- | --- | --- | --- | --- | --- | --- | --- |
| 83 | > 5000 | 42 |  |  |  |  | COc1cc2c(Oc3ccc(NC(=O)C4(C(=O)Nc5ccc(F)cc5)CC4)cc3F)ccnc2cc1OCCCOCCCOCCC(=O)N[C@H](C(=O)N1C[C@H](O)C[C@H]1C(=O)NCc1ccc(-c2scnc2C)cc1)C(C)(C)C [Example 1] | 230 |  |  |  |
| 35 | 79.2 ± 28 | 98.4 | > 5000 | 24 | completely rescued | Dmax = 98.4% | COc1cc2c(Oc3ccc(NC(=O)C4(C(=O)Nc5ccc(F)cc5)CC4)cc3F)ccnc2cc1OCCOCCOCCOc1cc(-c2scnc2C)ccc1CNC(=O)[C@@H]1C[C@@H](O)CN1C(=O)[C@H](C(C)C)N1Cc2ccccc2C1=O [compound 46] |  |  |  |  |

| Compound | Dmax (p38α; MDA-MB-231 cells, western blot) [%] | DC50 (p38δ; MDA-MB-231 cells, western blot) [nM] | Dmax (p38δ; MDA-MB-231 cells, western blot) [%] | DC50 (p38α; MDA-MB-231 cells, western blot, read-out: p38α DC50) [nM] | p38δ degradation efficacy maintained post-washout (p38δ; [2]) [h] | rescue of p38δ downregulation by proteasome / neddylation inhibitor (p38δ; [3]) | p38δ Dmax (p38δ; MDA-MB-231 cells, western blot) | DC50 (p38α; [1]) [nM] | p38α degradation efficacy maintained post-washout (p38α; [2]) [h] | rescue of p38α downregulation by proteasome / neddylation inhibitor (p38α; [3]) | p38α Dmax (maximum percentage of degradation achieved) (p38α; MDA-MB-231 cells, western blot) |
| --- | --- | --- | --- | --- | --- | --- | --- | --- | --- | --- | --- |
| COc1cc2c(Oc3ccc(NC(=O)C4(C(=O)Nc5ccc(F)cc5)CC4)cc3F)ccnc2cc1OCCCCOCCCCOCC(=O)N[C@H](C(=O)N1C[C@H](O)C[C@H]1C(=O)NCc1ccc(-c2scnc2C)cc1)C(C)(C)C [compound 50, N-(3-fluoro-4-((7-(4-(4-(2-(((S)-1-((2S,4R)-4-hydroxy-2-((4-(4-methylthiazol-5-yl)benzyl)carbamoyl)pyrrolidin-1-yl)-3,3-dimethyl-1-oxobutan-2-yl)amino)-2-oxoethoxy)butoxy)buto-xy)-6-methoxyquinolin-4-yl)oxy)phenyl)-N-(4-fluorophenyl)cyclopropane-1,1-dicarboxa-mide] | 99.6 | > 5000 | 18.5 |  |  |  |  | 9.5 ± 1 | 72 | completely rescued | Dmax = 99.6% |
